This passage reports GI50, EC50 and IC50 results from patent US9561228B2 (Celgene Avilomics Research, Inc., priority 2013, dated 2017).

The test system of experiment [1] is HT-29 cells (colorectal adenocarcinoma). Kind of experiment: Inhibition of cancer cell proliferation, HT-29 (CellTiterGlo, 72 hours). In kind it is cell-based. Particulars: Homo sapiens. A digest of the protocol: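 HT-29 cells seeded at 3000/well, then treated with 3-fold serial dilutions from a 5,000 nM two-fold solution in serum-free RPMI1640, untreated wells as control, for 72 h at 37° C. CellTiterGlo luminescence converted to cell number via a standard curve; GI50 from percent inhibition versus untreated growth.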

Experiment [2] has as its system A375 cells (malignant melanoma). Kind of experiment: Inhibition of cancer cell proliferation, A375 (CellTiterGlo, 72 hours). The experiment is classed as cell-based. Particulars: Homo sapiens, A-375. The procedure: Measurement of Inhibition of Cancer Cell Proliferation (A375/Malignant Melanoma)
The following protocol used an A375 cell line, which cell line is a model for malignant melanoma. A375 cells were split and 3000 cells in […] of growth medium were added per well of a flat-bottom 96-well plate. A two-fold test compound solution in serum-free DMEM was made, starting at 5,000 nM. Then, 3-fold serial dilutions were made across the plate from well 1 to well 11. Well 12, the last well in a row on the plate, was left as untreated control. 100 μl compound solutions were then transferred to the wells, so the total volume of media was 200 μl per well. Plates were returned to a 37° C. incubator, and the cells were cultured for 72 hours. To measure cell proliferation after 72 hours, media was discarded from the plates, 50 μl/well of fresh medium was added, and 50 μl CellTiterGlo solution was added (Promega Cat#G7573). The plate was covered with a dark lid and incubated for 10 min. A white sealing tape was applied to the bottom of the plate, and the plate was read in a luminescence plate reader. […] 50 μl CellTiterGlo was added per well, and the plate was read in a luminescence plate reader after 10 min. The reading was plotted vs. cell number to generate a standard curve and the equation of the curve fit. The compound-treated sample luminescence readings were converted to cell numbers using the curve-fit equation. The percent of inhibition, using untreated control as 100% growth, was then calculated. GI50 was then calculated by GraphPad Prism.

The test system of experiment [3] is ERK1/2 phosphorylation of p90RSK in HT29 cells. Kind of experiment: pRSK MSD Assay in HT29 cells. The experiment is classed as cell-based. Particulars: Homo sapiens, HT-29, read-out: ERK1/ERK2 PRSK MSD HT29 EC50. A digest of the protocol:
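Serum-starved HT29 cells (0.1% FBS overnight) treated with test compound for 120 min at 37° C, then lysed with protease and phosphatase inhibitors. Phospho-p90RSK quantified by MSD sandwich immunoassay: RSK capture antibody, phospho-RSK detection antibody plus Sulfo-tagged antibody, electrochemiluminescence read.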

Experiment [4] concerns the target T1, MEK1 activated ERK1 (Homo sapiens, UniProt P27361).
T1 construct: purchased Millipore (Billerica, Mass.) 14-439-K
Kind of experiment: Omnia continuous-read kinase assay for potency against MEK1 activated ERK1. In kind it is biochemical. Particulars: MEK1 activated ERK1, ATP at KM; read-out: ERK1 Omnia WT ATP KM IC50. Summed up: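 Apparent IC50 came from initial reaction slopes (RFU vs time) plotted against log inhibitor with a variable-slope fit. Reactions were started with ERK1 (4 nM final) added to 50 μM ATP, roughly at its appKM, and 10 μM Sox-conjugated ST17 peptide in 20 mM Tris pH 7.5, 5 mM MgCl2. Fluorescence was monitored every 71 seconds.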

T1 sequence (P27361 whole entry): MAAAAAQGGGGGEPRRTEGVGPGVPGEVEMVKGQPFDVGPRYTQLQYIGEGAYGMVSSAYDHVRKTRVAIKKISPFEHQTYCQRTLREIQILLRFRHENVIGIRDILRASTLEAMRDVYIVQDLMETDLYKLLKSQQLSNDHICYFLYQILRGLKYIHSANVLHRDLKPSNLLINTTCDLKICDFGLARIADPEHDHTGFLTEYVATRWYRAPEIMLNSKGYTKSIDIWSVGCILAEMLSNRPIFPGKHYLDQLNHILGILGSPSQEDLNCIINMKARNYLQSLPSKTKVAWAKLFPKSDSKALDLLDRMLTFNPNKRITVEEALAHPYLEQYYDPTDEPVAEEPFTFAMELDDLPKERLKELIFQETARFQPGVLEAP

`C=CC(=O)Nc1ccccc1Nc1nc(NC2CCC(=O)CC2)ncc1C(F)(F)F` [Compound I-23, N-(2-((2-((4-Oxocyclohexyl)amino)-5-(trifluoromethyl)pyrimidin-4-yl)amino)phenyl)acrylamide]: the GI50 in experiment [1] was below 100 nM; in experiment [2] it was 101 to 500 nM.

`C/C=C/S(=O)(=O)Nc1cc(F)ccc1Nc1nc(N[C@H]2CCCN(C(=O)CO)C2)ncc1C(F)(F)F` [Compound I-48, (S,E)-N-(5-Fluoro-2-((2-((1-(2-hydroxyacetyl)piperidin-3-yl)amino)-5-(trifluoromethyl)pyrimidin-4-yl)amino)phenyl)prop-1-ene-1-sulfonamide]: the GI50 in experiment [1] and in experiment [2] was above 1000 nM throughout.

On to `NC(=O)c1ccccc1Nc1nc(N[C@H]2CCCN(C(=O)CO)C2)ncc1C(F)(F)F` [Compound I-307, (S)-2-((2-((1-(2-hydroxyacetyl)piperidin-3-yl)amino)-5-(trifluoromethyl)pyrimidin-4-yl)amino)benzamide], for which the EC50 in experiment [3] is above 1000 nM. For the same compound, the GI50 in experiment [1] was 101 to 500 nM; in experiment [2] it was below 100 nM.

With `C=CC(=O)Nc1cc(C)ccc1Nc1nc(N[C@H]2CCCN(C(=O)CC)C2)ncc1C(F)(F)F` [Compound I-41, (S)—N-(5-Methyl-2-((2-((1-propionylpiperidin-3-yl)amino)-5-(trifluoromethyl)pyrimidin-4-yl)amino)phenyl)acrylamide], the GI50 in experiment [1] and in experiment [2] was below 100 nM throughout.

Regarding `C=CC(=O)Nc1ccccc1Nc1nc(Nc2cc(C(=O)NOC)ccc2C)ncc1Cl` [Compound I-191, 3-((4-((2-acrylamidophenyl)amino)-5-chloropyrimidin-2-yl)amino)-N-methoxy-4-methylbenzamide], in experiment [3], the EC50 was 101 to 500 nM. The concentration for 50% growth inhibition (GI50) in experiment [1] and in experiment [2] was below 100 nM each time.

Take `C=CC(=O)Nc1ccccc1Nc1nc(N[C@H]2CCCN(C(N)=O)C2)ncc1C(F)(F)F` [Compound I-18, (S)-3-((4-((2-Acrylamidophenyl)amino)-5-(trifluoromethyl)pyrimidin-2-yl)amino)piperidine-1-carboxamide]: the EC50 in experiment [3] is 101 to 500 nM. Further, the GI50 in experiment [1] and in experiment [2] was 101 to 500 nM in each case.

Regarding `C=CC(=O)Nc1ccccc1Nc1nc(Nc2cc(C(=O)NC)c(F)cc2C)ncc1Cl` [Compound I-231, 5-((4-((2-acrylamidophenyl)amino)-5-chloropyrimidin-2-yl)amino)-2-fluoro-N,4-dimethylbenzamide], in experiment [4], the IC50 was in the range of 101 to 500 nM. Also, in experiment [3], the EC50 was in the range of 101 to 500 nM. Moreover, the GI50 in experiment [1] and in experiment [2] was below 100 nM each time.

Take `C=CC(=O)Nc1ccccc1Nc1nc(NC2CCOCC2)ncc1Cl` [Compound I-108, N-(2-((5-chloro-2-((tetrahydro-2H-pyran-4-yl)amino)pyrimidin-4-yl)amino)phenyl)acrylamide]: the values for the GI50 in experiment [1] and in experiment [2] were below 100 nM and 101 to 500 nM, respectively.

Regarding `CN(C)CCC(=O)Nc1ccccc1Nc1nc(N[C@H]2CCCN(C(=O)CO)C2)ncc1C(F)(F)F` [Compound I-276, (S)-3-(dimethylamino)-N-(2-((2-((1-(2-hydroxyacetyl)piperidin-3-yl)amino)-5-(trifluoromethyl)pyrimidin-4-yl)amino)phenyl)propanamide], in experiment [3], the EC50 is above 1000 nM. The GI50 in experiment [1] was 101 to 500 nM; in experiment [2] it was above 1000 nM.

With `C=CC(=O)Nc1ccc(C)cc1Nc1nc(N[C@H]2CCCN(C(=O)CO)C2)ncc1C(F)(F)F` [Compound I-37, (S)—N-(2-((2-((1-(2-hydroxyacetyl)piperidin-3-yl)amino)-5-(trifluoromethyl)pyrimidin-4-yl)amino)-4-methylphenyl)acrylamide], in experiment [3], the EC50 is below 100 nM. The GI50 in experiment [1] and in experiment [2] was below 100 nM each time.

On to `C=C(C)S(=O)(=O)Nc1ccccc1Nc1nc(N[C@H]2CCCN(C(=O)CO)C2)ncc1C(F)(F)F` [Compound I-46, (S)—N-(2-((2-((1-(2-Hydroxyacetyl)piperidin-3-yl)amino)-5-(trifluoromethyl)pyrimidin-4-yl)amino)phenyl)prop-1-ene-2-sulfonamide], for which the EC50 in experiment [3] was 501 to 999 nM. Besides, the GI50 in experiment [1] and in experiment [2] was 501 to 999 nM in each case.

Take `CC(C)S(=O)(=O)c1ccccc1Nc1nc(N[C@H]2CCCN(C(=O)CO)C2)ncc1C(F)(F)F` [Compound I-310, (S)-2-hydroxy-1-(3-((4-((2-(isopropylsulfonyl)phenyl)amino)-5-(trifluoromethyl)pyrimidin-2-yl)amino)piperidin-1-yl)ethanone]: in experiment [3], the EC50 was in the range of 501 to 999 nM. In addition, the concentration for 50% growth inhibition (GI50) in experiment [1] and in experiment [2] was below 100 nM each time.

`C=C(C)S(=O)(=O)Nc1cc(C)ccc1Nc1nc(N[C@H]2CCCN(C(=O)CO)C2)ncc1C(F)(F)F` [Compound I-47, (S)—N-(2-((2-((1-(2-Hydroxyacetyl)piperidin-3-yl)amino)-5-(trifluoromethyl)pyrimidin-4-yl)amino)-5-methylphenyl)prop-1-ene-2-sulfonamide]: the EC50 in experiment [3] lay within 101 to 500 nM. Also, the GI50 in experiment [1] is 101 to 500 nM; in experiment [2], below 100 nM.

In the case of `CCC(=O)Nc1ccccc1Nc1nc(N[C@H]2CCCN(C(=O)CO)C2)ncc1C(F)(F)F` [Compound I-318, (S)—N-(2-((2-((1-(2-hydroxyacetyl)piperidin-3-yl)amino)-5-(trifluoromethyl)pyrimidin-4-yl)amino)phenyl)propionamide], the EC50 in experiment [3] was in the range of 501 to 999 nM. Besides, the GI50 in experiment [1] was 101 to 500 nM; in experiment [2] it was below 100 nM.

Consider `C=CC(=O)Nc1ccccc1Nc1nc(N[C@H]2CCCN(C(=O)CC)C2)ncc1Cl` [Compound I-131, (S)—N-(2-((5-chloro-2-((1-propionylpiperidin-3-yl)amino)pyrimidin-4-yl)amino)phenyl)acrylamide], for which the EC50 in experiment [3] was below 100 nM. Further, the GI50 in experiment [1] and in experiment [2] was below 100 nM each time.

With `C=CC(=O)Nc1ccccc1Nc1nc(Nc2cc(C(N)=O)ccc2OC)ncc1C(F)(F)F` [Compound I-70, 3-((4-((2-Acrylamidophenyl)amino)-5-(trifluoromethyl)pyrimidin-2-yl)amino)-4-methoxybenzamide], the EC50 in experiment [3] is below 100 nM. For the same compound, the GI50 in experiment [1] and in experiment [2] was below 100 nM each time.

Consider `C=CC(=O)Nc1cc(C)ccc1Nc1nc(Nc2cc(C(N)=O)ccc2C)ncc1Cl` [Compound I-229, 3-((4-((2-acrylamido-4-methylphenyl)amino)-5-chloropyrimidin-2-yl)amino)-4-methylbenzamide], for which the EC50 in experiment [3] lay within 101 to 500 nM. Also, the 50% growth inhibitory concentration (GI50) in experiment [1] and in experiment [2] was below 100 nM throughout.

In the case of `C=CC(=O)Nc1ccccc1Nc1nc(N[C@H]2CCCN(C(=O)[C@@H](C)O)C2)ncc1Cl` [Compound I-134, N-(2-((5-chloro-2-(((S)-1-((R)-2-hydroxypropanoyl)piperidin-3-yl)amino)pyrimidin-4-yl)amino)phenyl)acrylamide], the EC50 in experiment [3] was in the range of 101 to 500 nM. Moreover, the 50% growth inhibitory concentration (GI50) in experiment [1] and in experiment [2] was below 100 nM each time.

`C=CC(=O)Nc1cc(C)ccc1Nc1nc(N[C@H]2CCCN(C(=O)CN)C2)ncc1C(F)(F)F` [Compound I-42, (S)—N-(2-((2-((1-(2-Aminoacetyl)piperidin-3-yl)amino)-5-(trifluoromethyl)pyrimidin-4-yl)amino)-5-methylphenyl)acrylamide]: in experiment [3], the EC50 fell in the range of 101 to 500 nM. The GI50 in experiment [1] and in experiment [2] was above 1000 nM in each case.

In the case of `CCC(=O)Nc1ccccc1Nc1nc(N[C@H]2CCCN(C(C)=O)C2)ncc1C(F)(F)F` [Compound I-317, (S)—N-(2-((2-((1-acetylpiperidin-3-yl)amino)-5-(trifluoromethyl)pyrimidin-4-yl)amino)phenyl)propionamide], the EC50 in experiment [3] was above 1000 nM. Moreover, the GI50 in experiment [1] and in experiment [2] was below 100 nM throughout.

In the case of `C=CC(=O)Nc1cc(C)ccc1Nc1nc(NC2CCC(=O)CC2)ncc1C(F)(F)F` [Compound I-38, N-(5-Methyl-2-((2-((4-oxocyclohexyl)amino)-5-(trifluoromethyl)pyrimidin-4-yl)amino)phenyl)acrylamide], the EC50 in experiment [3] is above 1000 nM. Moreover, the GI50 lay in the range of 501 to 999 nM in experiment [1] and 101 to 500 nM in experiment [2].
